Measured values reported in patent publication US20240350522A1, “HYGROMYCIN A FOR TREATMENT OF DISEASES AND INFECTIONS” (FLIGHTPATH BIOSCIENCES, INC., priority 2021, published 2024).
Where “and” joins values, the source holds several entries; their conditions need not be identical. Equal values may be shown once.

How the values were obtained:
Type in all cases: cell-based
[1] = tested on: Treponema pallidum pallidum Chicago strain; experiment: T. pallidum susceptibility assay, co-culture with Sf1Ep cells, tp0574 (T47) qPCR after 7 days; conditions: penicillin 60 ng/ml, 7 days
[2] = tested on: Treponema pallidum pallidum Chicago strain; experiment: Treated treponemes seeded onto no-antibiotic plate, 7 more days, T47 qPCR (treponemicidal activity)
[3] = tested on: Treponema pallidum pallidum SS14 strain; experiment: T. pallidum susceptibility assay, co-culture with Sf1Ep cells, tp0574 (T47) qPCR after 7 days; conditions: penicillin 60 ng/ml, 7 days
[4] = tested on: Treponema pallidum pallidum SS14 strain; experiment: Treated treponemes seeded onto no-antibiotic plate, 7 more days, T47 qPCR (treponemicidal activity)
[5] = pre-treated with penicillin 60 ng/ml, seeded on no antibiotic plate, average
[6] = pre-treated with penicillin 60 ng/ml, seeded on no antibiotic plate, replicate wells

CC1(C)S[C@@H]2[C@H](NC(=O)Cc3ccccc3)C(=O)N2[C@H]1C(=O)O [Pen., penicillin G, reference compound]
Mean T47 copies/μL, Avg. ([1]; average of 8 replicates): 252 copies/μL | Mean T47 copies/μL, experimental values ([1]; replicate wells): 294 copies/μL and 226 copies/μL and 304 copies/μL and 137 copies/μL and 328 copies/μL and 261 copies/μL and 222 copies/μL and 241 copies/μL | treponemicidal activity in words ([2]; Chicago strain, 60 ng/ml): treponemicidal | Mean T47 copies/μL, Avg. [2, 5]: 26 copies/μL | Mean T47 copies/μL, Expt. values [2, 6]: 12 copies/μL (2×) and 41 copies/μL and 74 copies/μL and 22 copies/μL (2×) and 15 copies/μL and 11 copies/μL | Mean T47 copies/μL, Average ([3]; average of 8 replicates): 216 copies/μL | Mean T47 copies/μL, experimental values ([3]; replicate wells): 189 copies/μL and 200 copies/μL and 166 copies/μL and 282 copies/μL and 184 copies/μL and 223 copies/μL and 214 copies/μL and 271 copies/μL | treponemicidal activity in words ([4]; SS14 strain, 60 ng/ml): treponemicidal | Mean T47 copies/μL, Avg. [4, 5]: 18 copies/μL | Mean T47 copies/μL, Expt. values [4, 6]: 21 copies/μL (2×) and 17 copies/μL and 24 copies/μL and 10 copies/μL and 13 copies/μL and 27 copies/μL and 15 copies/μL
